# Read-outs that look alike come from different tables or passages of the source. No end group written: not given here.
# Legend:
# S. aureus = type: cell-based
# Procedure: (§1) The synthetic C1 peptide and its analogues were tested using Standard disk susceptibility testing by National Committee for […] Laboratory Standards (NCCLS) against, S. aureus, E. coli and S. pneumoniae. […]
# E. coli = assay: Standard disk susceptibility testing (NCCLS), E. coli; type: cell-based
# Procedure: as §1
# S. pneumoniae = assay: Standard disk susceptibility testing (NCCLS), S. pneumoniae; type: cell-based
# Procedure: as §1
# allergic mice (OVA/OVA) [1] = assay: Allergic airways disease (OVA) model: inflammatory cells in BALF; type: in vivo; parameters: key to Airway lymphocytes / Airway eosinophils / Airway macrophages / Airway inflammatory cells / Airway neutrophils: nc: no change; ↑: increase; ↓: decrease; details: for Airway eosinophils / Airway inflammatory cells / Airway lymphocytes / Airway macrophages / Airway neutrophils: 200 μg/100 μl s.c. during OVA challenge, compared to OVA/OVA alone
# allergic mice (OVA/OVA) [2] = assay: Allergic airways disease (OVA) model: local and systemic OVA-specific cytokine production; type: in vivo; parameters: key to Spleen OVA-stimulated IL-5 / Spleen OVA-stimulated IL-13 / LN OVA-stimulated IL-5 / LNOVA stimulated IL-13: nc: no change; ↑: increase; ↓: decrease; details: for LN OVA-stimulated IL-5 / LNOVA stimulated IL-13 / Spleen OVA-stimulated IL-5 / Spleen OVA-stimulated IL-13: 200 μg/100 μl s.c. during OVA challenge, compared to OVA/OVA alone
# allergic mice (OVA/OVA) [3] = assay: Allergic airways disease (OVA) model: airways hyperreactivity to methacholine; type: in vivo; parameters: key to Airway Resistance / Airway Compliance: nc: no change; ↑: increase; ↓: decrease; details: for Airway Compliance / Airway Resistance: 200 μg/100 μl s.c. during OVA challenge, compared to OVA/OVA alone
# trypsin = type: in vitro ADME
# Procedure: The effect of trypsin on C1 and CP was studied by incubating each peptide (1 μg/μl) in methanol and ammonium bicarbonate (0.1M) with 125 ng/μl of trypsin at pH 8 and 37° C. The effect of trypsin after incubation with CP and C1 was followed by mass spectrometry. […]
# 2B4.11 hybridoma = assay: Antigen presentation assay (IL-2 produced in response to antigen); type: cell-based; details: for % Ave IL2 Production: average, Tables 1-3; for IL2 %: 50 μM, relative to DMSO control (100%); for IL-2 production, % of the solvent only control value: 0.5% DMSO, ±SD
# [4] = Surface plasmon resonance binding to DMPC liposomes; details: SPR, L1 sensor chip, 50 μM, 25° C.
# Procedure: (§2) Model membranes composed of zwitterionic and anionic phospholipids were prepared as previously described (Bender et al., 2004). Briefly, DMPC and DMPG were dissolved in dry chloroform and chloroform/methanol (2:1) respectively to give 10 mg/ml solutions. […] The solution was sonicated in an ultrasonic bath for 20 min. Eight cycles of freeze/thawing was followed by extrusion through polycarbonate filters, first 100 nm (21 times) then 50 nm pore diameter (21 times), using a Lipofast apparatus (Avestin, Ottawa, Canada) and SUVs were used immediately. SPR was carried out on a BIAcore 2000 instrument using Pioneer Sensor Chip L1 and HEPES (HBS-N, Biacore, Upssala, Sweden) as running buffer. The chip surface was cleaned with 40 mM octyl glycoside (30 μl, 10 μl/min) followed liposomes (SUV) (100 μl, 5 μl/min). 10 mM NaOH (40 μl, 10 μl/min) removed any multilamellar vesicles from the surface before injecting the lipopeptide solutions (100 μl, 5 μl/min). The dissociation stage was 1200 sec. […] All SPR experiments were run at 25° C. and all analyses were performed using the BIAevaluation software (Biacore, Uppsala, Sweden). Lipopeptide binding was expressed as the difference in signal between points before sample injection and after dissociation.
# [5] = Surface plasmon resonance binding to DMPG liposomes; details: for binding to DMPG (anionic) liposomes: SPR, L1 sensor chip, 50 μM, 25° C.
# Procedure: as §2
# [6] = second IL2 column (individual experiment in triplicate)
# [7] = third IL2 column (individual experiment in triplicate)
# [8] = first IL2 column (individual experiment in triplicate)
# [9] = fifth IL2 column (individual experiment in triplicate)
# [10] = fourth IL2 column (individual experiment in triplicate)
# [11] = 200 μg s.c. during challenge, allergic mice
molecule,measurement,setting,value
"CO/N=C(\C(=O)N[C@@H]1C(=O)N2C(C(=O)O)=C(COC(C)=O)CS[C@H]12)c1csc(N)n1 [Ceforaxime, reference compound]","antimicrobial activity, S. aureus",S. aureus; 30 μg/ml,−ve
same,"antimicrobial activity, E. coli",E. coli; 30 μg/ml,+ve
same,"antimicrobial activity, S. pneumoniae",S. pneumoniae; 30 μg/ml,−ve
"Cc1onc(-c2ccccc2)c1C(=O)N[C@@H]1C(=O)N2[C@@H]1SC(C)(C)[C@@H]2C(=O)O [Oxacillin, reference compound]","antimicrobial activity, S. aureus",S. aureus; 1 μg/ml,+ve
same,"antimicrobial activity, E. coli",E. coli; 1 μg/ml,−ve
same,"antimicrobial activity, S. pneumoniae",S. pneumoniae; 1 μg/ml,+ve
"C[C@H]1C[C@@H]2[C@H]([C@@H](O)C[C@@]3(C)[C@H]2CC[C@]3(O)C(=O)CO)[C@@]2(C)C=CC(=O)C=C12 [methylprednisolone, reference compound]",Airway eosinophils,allergic mice (OVA/OVA) [1],↓
same,Airway inflammatory cells,allergic mice (OVA/OVA) [1],↓
same,Airway lymphocytes,allergic mice (OVA/OVA) [1],nc
same,Airway macrophages,allergic mice (OVA/OVA) [1],↓
same,Airway neutrophils,allergic mice (OVA/OVA) [1],↓
same,LN OVA-stimulated IL-5,allergic mice (OVA/OVA) [2],nc
same,LNOVA stimulated IL-13,allergic mice (OVA/OVA) [2],nc
same,Spleen OVA-stimulated IL-5,allergic mice (OVA/OVA) [2],↓
same,Spleen OVA-stimulated IL-13,allergic mice (OVA/OVA) [2],↓
same,Airway Compliance,allergic mice (OVA/OVA) [3],↑
same,Airway Resistance,allergic mice (OVA/OVA) [3],↓
"GLRILLLKV [CP, GLRILLLKV, reference compound]","stability without trypsin, 3 hours (Mass spectroscopy-MS)",trypsin,No degradation product
same,"stability without trypsin, 24 hours (MS)",trypsin,No degradation product
LDKLDKKDKLDKVDG (cyclo(LDKLDKKDKLDKVDG); ring closure inferred; not fully specified) [C11],% Ave IL2 Production,2B4.11 hybridoma,96%
same,IL2 %,2B4.11 hybridoma; [6],88.5%
same,IL2 %,2B4.11 hybridoma; [7],104%
LDKLDKLDKLDKVDG [C2],% Ave IL2 Production,2B4.11 hybridoma,22%
same,"IL-2 production, % of the solvent only control value",2B4.11 hybridoma; peptide 25 μM,58.74%±7.63
same,"IL-2 production, % of the solvent only control value",2B4.11 hybridoma; peptide 50 μM,24.51%±8.81
same,binding to DMPC (zwitterionic) liposomes,[4],only very limited binding
same,binding to the anionic liposome,[5]; SPR sensorgram,3000 RU
same,"antimicrobial activity, S. aureus",S. aureus; peptide 10 μg/ml,−ve
same,"antimicrobial activity, S. aureus",S. aureus; peptide 100 μg/ml,−ve
same,"antimicrobial activity, S. aureus",S. aureus; peptide 1000 μg/ml,−ve
same,"antimicrobial activity, E. coli",E. coli; peptide 10 μg/ml,−ve
same,"antimicrobial activity, E. coli",E. coli; peptide 100 μg/ml,−ve
same,"antimicrobial activity, E. coli",E. coli; peptide 1000 μg/ml,−ve
same,"antimicrobial activity, S. pneumoniae",S. pneumoniae; peptide 10 μg/ml,−ve
same,"antimicrobial activity, S. pneumoniae",S. pneumoniae; peptide 100 μg/ml,−ve
same,"antimicrobial activity, S. pneumoniae",S. pneumoniae; peptide 1000 μg/ml,−ve
LDKLDLLDLLDKVDG (cyclo(LDKLDLLDLLDKVDG); ring closure inferred; not fully specified) [C5],% Ave IL2 Production,2B4.11 hybridoma,78%
same,IL2 %,2B4.11 hybridoma; [8],73.6%
same,IL2 %,2B4.11 hybridoma; [6],75%
same,IL2 %,2B4.11 hybridoma; [7],85.4%
LDLLDLLDRLDKVDG (cyclo(LDLLDLLDRLDKVDG); ring closure inferred; not fully specified) [C8],% Ave IL2 Production,2B4.11 hybridoma,33%
same,IL2 %,2B4.11 hybridoma; [9],17.4%
same,IL2 %,2B4.11 hybridoma; [10],20.2%
same,IL2 %,2B4.11 hybridoma; [6],35%
same,IL2 %,2B4.11 hybridoma; [7],(61.2) %
LDLLDRLDLLDKVDG (cyclo(LDLLDRLDLLDKVDG); ring closure inferred; not fully specified) [C6],% Ave IL2 Production,2B4.11 hybridoma,99%
same,IL2 %,2B4.11 hybridoma; [8],104.5%
same,IL2 %,2B4.11 hybridoma; [6],104%
same,IL2 %,2B4.11 hybridoma; [7],89%
LDRLDKKDKLDKVDG (cyclo(LDRLDKKDKLDKVDG); ring closure inferred; not fully specified) [C12],% Ave IL2 Production,2B4.11 hybridoma,27%
same,IL2 %,2B4.11 hybridoma; [9],24%
same,IL2 %,2B4.11 hybridoma; [8],9.0%
same,IL2 %,2B4.11 hybridoma; [10],33.7%
same,IL2 %,2B4.11 hybridoma; [6],21%
same,IL2 %,2B4.11 hybridoma; [7],(49) %
LDRLDKLDKLDKVDG (cyclo(LDRLDKLDKLDKVDG); ring closure inferred; not fully specified) [C10],% Ave IL2 Production,2B4.11 hybridoma,59%
same,IL2 %,2B4.11 hybridoma; [9],64.1%
same,IL2 %,2B4.11 hybridoma; [10],54%
LDRLDKLDLLDKVDG (cyclo(LDRLDKLDLLDKVDG); ring closure inferred; not fully specified) [C9],% Ave IL2 Production,2B4.11 hybridoma,25%
same,IL2 %,2B4.11 hybridoma; [9],16.9%
same,IL2 %,2B4.11 hybridoma; [10],6.75%
same,IL2 %,2B4.11 hybridoma; [6],11.5%
same,IL2 %,2B4.11 hybridoma; [7],(65.3) %
LDRLDKVDG (cyclo(LDRLDKVDG); ring closure inferred; not fully specified) [6AA],% Ave IL2 Production,2B4.11 hybridoma,35%
same,IL2 %,2B4.11 hybridoma; [9],44.3%
same,IL2 %,2B4.11 hybridoma; [8],9.0%
same,IL2 %,2B4.11 hybridoma; [10],33.7%
same,IL2 %,2B4.11 hybridoma; [6],36.5%
same,IL2 %,2B4.11 hybridoma; [7],(52) %
"LDRLDLLDKLDKVDG (cyclo(LDRLDLLDKLDKVDG); ring closure inferred; not fully specified) [C3, cyclic peptide 3]",% Ave IL2 Production,2B4.11 hybridoma,95%
same,"IL-2 production, % of the solvent only control value",2B4.11 hybridoma; peptide 50 μM,91.69%±25.86
same,binding to DMPC (zwitterionic) liposomes,[4],no binding at all
same,binding to DMPG (anionic) liposomes,[5],no binding at all
same,"antimicrobial activity, S. aureus",S. aureus; peptide 100 μg/ml,−ve
same,"antimicrobial activity, S. aureus",S. aureus; peptide 1000 μg/ml,−ve
same,"antimicrobial activity, E. coli",E. coli; peptide 100 μg/ml,−ve
same,"antimicrobial activity, E. coli",E. coli; peptide 1000 μg/ml,−ve
same,"antimicrobial activity, S. pneumoniae",S. pneumoniae; peptide 100 μg/ml,−ve
same,"antimicrobial activity, S. pneumoniae",S. pneumoniae; peptide 1000 μg/ml,−ve
LDRLDLLDKVDG [8AA],% Ave IL2 Production,2B4.11 hybridoma,72%
LDRLDLLDLLDKVDG [C1-L],% Ave IL2 Production,2B4.11 hybridoma,90%
same,"IL-2 production, % of the solvent only control value",2B4.11 hybridoma; peptide 50 μM,only minimal activity
same,binding to DMPC (zwitterionic) liposomes,[4],only very limited binding
same,binding to DMPG (anionic) liposomes,[5],only very limited binding
same,eosinophils in BALF,allergic mice (OVA/OVA) [1]; [11],decrease
same,total inflammatory cell counts in bronchoalveolar lavage fluid (BALF),allergic mice (OVA/OVA) [1]; [11],significantly decreased
same,Airway eosinophils,allergic mice (OVA/OVA) [1],↓
same,Airway inflammatory cells,allergic mice (OVA/OVA) [1],↓
same,Airway lymphocytes,allergic mice (OVA/OVA) [1],nc
same,Airway macrophages,allergic mice (OVA/OVA) [1],nc
same,Airway neutrophils,allergic mice (OVA/OVA) [1],nc
same,locally produced (peribronchial lymph node derived) IL-5,allergic mice (OVA/OVA) [2]; [11],no significant impact
same,locally produced (peribronchial lymph node derived) IL-13,allergic mice (OVA/OVA) [2]; [11],no significant impact
same,systemic (spleen derived) IL-5,allergic mice (OVA/OVA) [2]; [11],significantly decreased
same,systemic (spleen derived) IL-13,allergic mice (OVA/OVA) [2]; [11],no change
same,LN OVA-stimulated IL-5,allergic mice (OVA/OVA) [2],nc
same,LNOVA stimulated IL-13,allergic mice (OVA/OVA) [2],nc
same,Spleen OVA-stimulated IL-5,allergic mice (OVA/OVA) [2],↓
same,Spleen OVA-stimulated IL-13,allergic mice (OVA/OVA) [2],nc
same,airway resistance in response to methacholine challenge,allergic mice (OVA/OVA) [3]; [11],no significant effect
same,dynamic compliance in response to methacholine challenge,allergic mice (OVA/OVA) [3]; [11],no significant effect
same,Airway Compliance,allergic mice (OVA/OVA) [3],nc
same,Airway Resistance,allergic mice (OVA/OVA) [3],nc
LDRLDLLDLLDRVDG [C4],% Ave IL2 Production,2B4.11 hybridoma,72%
same,"IL-2 production, % of the solvent only control value",2B4.11 hybridoma; peptide 50 μM,74.54%±11.22
same,binding to DMPC (zwitterionic) liposomes,[4],no binding at all
same,binding to DMPG (anionic) liposomes,[5],no binding at all
same,"antimicrobial activity, S. aureus",S. aureus; peptide 10 μg/ml,−ve
same,"antimicrobial activity, S. aureus",S. aureus; peptide 100 μg/ml,−ve
same,"antimicrobial activity, S. aureus",S. aureus; peptide 1000 μg/ml,−ve
same,"antimicrobial activity, E. coli",E. coli; peptide 10 μg/ml,−ve
same,"antimicrobial activity, E. coli",E. coli; peptide 100 μg/ml,−ve
same,"antimicrobial activity, E. coli",E. coli; peptide 1000 μg/ml,−ve
same,"antimicrobial activity, S. pneumoniae",S. pneumoniae; peptide 10 μg/ml,−ve
same,"antimicrobial activity, S. pneumoniae",S. pneumoniae; peptide 100 μg/ml,−ve
same,"antimicrobial activity, S. pneumoniae",S. pneumoniae; peptide 1000 μg/ml,−ve
RDLLDLLDLLDKVDG [C7],% Ave IL2 Production,2B4.11 hybridoma,49%
same,IL2 %,2B4.11 hybridoma; [9],76.4%
same,IL2 %,2B4.11 hybridoma; [8],29%
same,IL2 %,2B4.11 hybridoma; [10],71%
same,IL2 %,2B4.11 hybridoma; [6],15.4%
same,IL2 %,2B4.11 hybridoma; [7],54%

# Source: patent US20120077732A1, “CYCLIC PEPTIDES AND USES THEREOF” (SYDNEY WEST AREA HEALTH SERVICE, priority 2008, published 2012)
